# Measured values reported in patent publication US20230364102A1, “COMPOSITIONS AND METHODS FOR THE TREATMENT OF NEUROLOGICAL DISORDERS” (Duke University, priority 2020, published 2023).
# Experiments:
# [1] = system: LRRK2 G2019S patient-derived cells; assay: mtDNA damage in LRRK2 G2019S patient-derived cells; format: cell-based, human; conditions: 24 h, 1 μM, n=3
# Protocol: (§1) This example describes how mitochondrial DNA damage was measured using a quantitative PCR-based assay as described above. The following reagents and protocol steps as disclosed in Sanders et al., Curr Protoc Toxicol. 2018 May; 76(1): e50, doi: 10.1002/cptx.50 and also in U.S. Pat. No. 11,001,890. The entire contents of said publication and patent are herein incorporated by reference.
# (§2) Make a master mix if several samples are being run simultaneously. […]
# (§3) Perform the PCR reaction using the PCR amplification profile is as follows for the large mitochondrial PCR product using the KAPA LongRange Hot Start kit: • Melting: 94° C. for 3 min • Amplification: the optimized number of cycles (26-28) of melting (94° C. for 15 sec) and annealing (66° C. for 12 min). • Final extension: To complete the profile and finalize amplification of products, perform a final extension for 10 min at 72° C. • Holding: Hold at 4° C. until products are removed for quantification. […]
# (§4) (1) Add 10 μL of each PCR product and 90 μL of TE buffer to each of triplicate wells. […] Follow steps 6, 7 and 8 in Support Protocol 2 for fluorescent quantification of DNA.
# (§5) Normalize large mitochondrial PCR product fluorescence values for copy number differences using the small mitochondrial PCR product. […] This is the normalized large mitochondrial fluorescence value (A. M. Furda, Bess, Meyer, & Van Houten, 2012a). […]
# [2] = system: primary rat midbrain neurons; assay: Rotenone-induced mtDNA damage in primary midbrain neurons; format: cell-based; conditions: pre-treated for 24 h before rotenone
# Protocol: as §1, §2, §3, §4, §5
# [3] = system: human LRRK2 G2019S or GFP expressing neuronal cultures; assay: QPCR-based mtDNA damage assay in primary midbrain neuronal cultures expressing human LRRK2 G2019S; format: cell-based; conditions: treated for 6 h
# Description: Divide the normalized fluorescence values of each sample by the average normalized fluorescence value to get a ratio. […]
# ATM pSer1981 [4] = conditions: following treatment with the neurotoxin; cited from earlier work
# ATM pSer1981 [5] = assay: Western blot of ATM pSer1981 in HEK293 cells; format: cell-based, human; conditions: 100 nM, 24 h vs vehicle
smiles,measurement,setting,value
C[C@@H]1CN(CC(=O)Nc2ccc3c(c2)Cc2cccc(-c4cc(=O)cc(N5CCOCC5)o4)c2S3)C[C@H](C)O1 [KU60019],mtDNA damage,[1],sufficient to reverse mtDNA damage
CCNc1nc(Nc2cc(F)c(C(=O)N3CCOCC3)cc2OC)ncc1C(F)(F)F [GNE-7915],prevention of rotenone induced mtDNA damage,[2],able to prevent rotenone induced mtDNA damage
same,mtDNA damage (mtDNA integrity),[3],restored mtDNA integrity
C[n+]1ccc(-c2ccccc2)cc1 [MPP+],expression of ATM pSer1981,ATM pSer1981 [4],increased
C=C(C)[C@H]1Cc2c(ccc3c2O[C@@H]2COc4cc(OC)c(OC)cc4[C@@H]2C3=O)O1 [rotenone],ATM pSer1981 (kinase active) level,ATM pSer1981 [5],increased ATM pSer1981 levels
same,ATM pSer1981 (kinase active) level,ATM pSer1981 [5]; listed as Rotenone,increased levels of ATM pSer1981
